Columns and labels:
[1] = human, in vivo; cited from earlier work
[2] = rats or dogs; cited from earlier work
[3] = rat, dog, and human primary hepatocytes; cited from earlier work
Anti-(D2)2 [4] = experiment: Specificity of the lopinavir immunoassay (cross-reactivity); type: binding, rabbit; conditions: crossreactant 10 μg/mL + 5 μg/mL Lopinavir in human serum
Experimental: An immunoassay for lopinavir was conducted on the Cobas Mira Chemistry Analyzer (Roche). […] The specificity of the immunoassay was evaluated by adding potentially crossreactant drugs to human serum and determining the increase in the apparent concentration as a result of the presence of crossreactant. […] Each sample was assayed in duplicate. Testing was performed on the Cobas Mira analyzer. The percentage concentration above 5 μg/mL of lopinavir was calculated for each crossreactant.

HIV = conditions: cited from earlier work
Anti-(D2)2 [5] = experiment: Homogeneous enzyme immunoassay for lopinavir, standard curve; type: binding, rabbit; conditions: Enzyme Conjugate (D2)/G6PDH Reagent
From the text: Enzyme Conjugate (D2)/G6PDH and Antibody Anti-(D2)2 were selected as exemplary materials for the development of a homogeneous enzyme immunoassay for the anti-HIV therapeutic lopinavir. Enzyme Conjugate (D2)/G6PDH Reagent, as described in Example 45, was used. Also antibody Anti-(D2)2 was used in this Example as part of an antibody reagent (“Anti-(D2)2 Antibody Reagent”) further comprising nicotinamide adenine dinucleotide, glucose-6-phosphate, sodium chloride, bulking agent, surfactant, and preservatives.
An immunoassay for lopinavir was conducted on the Cobas Mira Chemistry Analyzer (Roche). On the analyzer, 4 μL of sample plus 61 μL water were incubated for 300 sec with 150 μL of Anti-(D2)2 Antibody Reagent. Subsequently, 75 μL of the Enzyme Conjugate (D2)/G6PDH Reagent was added. After 25 sec incubation, enzyme activity was monitored by following the production of NADH spectrophotometrically at 340 nm for 50 sec.
A series of known concentrations of lopinavir standards (ranging from 0 to 10 μg/mL) were prepared gravimetrically in MES (2-(N-Morpholino)ethanesulfonic acid, 0.01 M, pH 5.5) formulated with EDTA, protein additive, detergent, antiform agent, and preservative. Similarly, quality control samples were prepared (1.0 and 5.0 μg/mL).
Lopinavir was dissolved in methanol to give a stock solution of 1000 μg/mL. Synthetic buffered calibrator matrix 10 mL aliquots were spiked to give lopinavir standards with concentrations shown in Table 4. A series of Anti-(D2)2 Antibody Reagents were prepared by adding antibody to antibody/substrate diluent. Each antibody/substrate reagent was assayed with Enzyme Conjugate (D2)/G6PDH Reagent. Calibration curves were generated on the Cobas Mira by assaying each level in duplicate.

[6] = human; cited from earlier work

Compound	Metabolite identified in urine [1]	Percent Increase in Apparent Lopinavir Conc. above 5 μg/mL (Anti-(D2)2 [4])	also measured
O=C1Nc2c(CO)ccnc2N(C2CC2)c2ncccc21 [12-hydroxynevirapine]	0.6%	–	–
Cc1ccnc2c1NC(=O)c1cccnc1N2C1CC1 [nevirapine]	–	–	Fraction of the dose excreted in urine as parent compound [1]: 2.7%; Mean plasma elimination half-life, NVP [1]: 20.0 h; Parent compound share of circulating radioactivity [1]: 75%
CCC[C@@]1(CCc2ccccc2)CC(O)=C([C@H](CC)c2cccc(NS(=O)(=O)c3ccc(C(F)(F)F)cn3)c2)C(=O)O1 [tipranavir]	–	–	Plasma metabolic profile [2]: only the parent drug; Metabolic stability in hepatocyte incubations [3]: stable
Cc1cc(OC2OC(C(=O)O)C(O)C(O)C2O)nc2c1NC(=O)c1cccnc1N2C1CC1 (stereo not shown) [2-hydroxynevirapine glucuronide]	18.6%	–	–
CC(C)CN(C[C@@H](O)[C@H](Cc1ccccc1)NC(=O)O[C@H]1CCOC1)S(=O)(=O)c1ccc(N)cc1 [Amprenavir, amprenavir]	–	1%	–
Cc1c(OC2OC(C(=O)O)C(O)C(O)C2O)cnc2c1NC(=O)c1cccnc1N2C1CC1 (stereo not shown) [3-hydroxynevirapine glucuronide]	25.7%	–	–
CC(C)(C)NC(=O)[C@@H]1CN(Cc2cccnc2)CCN1C[C@@H](O)C[C@@H](Cc1ccccc1)C(=O)N[C@H]1c2ccccc2C[C@H]1O [Indinavir, indinavir]	–	0%	–
CC(C)c1nc(CN(C)C(=O)N[C@H](C(=O)N[C@@H](Cc2ccccc2)C[C@H](O)[C@H](Cc2ccccc2)NC(=O)OCc2cncs2)C(C)C)cs1 [Ritonavir, ritonavir]	–	0%	–
Cc1c(O)cnc2c1NC(=O)c1cccnc1N2C1CC1 [3-hydroxynevirapine]	1.2%	–	–
CC(C)(C)NC(=O)[C@@H]1C[C@@H]2CCCC[C@@H]2CN1C[C@@H](O)[C@H](Cc1ccccc1)NC(=O)[C@H](CC(N)=O)NC(=O)c1ccc2ccccc2n1 [Saquinavir, saquinavir]	–	1%	–
COc1c(O)ccc(C(=O)N[C@@H](CSc2ccccc2)[C@H](O)CN2C[C@H]3CCCC[C@H]3C[C@H]2C(=O)NC(C)(C)C)c1C [3′-methoxy-4′-hydroxynelfinavir]	–	–	EC50 relative to nelfinavir (HIV): fivefold higher
Cc1cccc(C)c1OCC(=O)N[C@@H](Cc1ccccc1)[C@@H](O)C[C@H](Cc1ccccc1)NC(=O)[C@H](C(C)C)N1CCCNC1=O [Lopinavir, lopinavir]	–	–	Reaction Rate (Anti-(D2)2 [5]; Lopinavir 0.5 μg/mL): 311.1 mA/min; Reaction Rate (Anti-(D2)2 [5]; Lopinavir 1.0 μg/mL): 338.9 mA/min; Reaction Rate (Anti-(D2)2 [5]; Lopinavir 2.5 μg/mL): 390.7 mA/min; Reaction Rate (Anti-(D2)2 [5]; Lopinavir 5.0 μg/mL): 427.0 mA/min; Reaction Rate (Anti-(D2)2 [5]; Lopinavir 10.0 μg/mL): 457.1 mA/min; Metabolism by liver microsomes [6]: metabolized very extensively and rapidly
Cc1ccnc2c1NC(=O)c1cc(OC3OC(C(=O)O)C(O)C(O)C3O)cnc1N2C1CC1 (stereo not shown) [8-hydroxynevirapine glucuronide]	1.3%	–	–
O=C1Nc2ccc(Cl)cc2[C@@](C#CC2CC2)(C(F)(F)F)O1 [Efavirenz, efavirenz]	–	0%	–
Cc1c(O)cccc1C(=O)N[C@@H](CSc1ccccc1)[C@H](O)CN1C[C@H]2CCCC[C@H]2C[C@H]1C(=O)NC(C)(C)C [Nelfinavir, nelfinavir]	–	1%	–
O=C1Nc2c(C(=O)O)ccnc2N(C2CC2)c2ncccc21 [4-carboxy-nevirapine]	2.4%	–	–
O=C1Nc2c(COC3OC(C(=O)O)C(O)C(O)C3O)ccnc2N(C2CC2)c2ncccc21 (stereo not shown) [12-hydroxynevirapine glucuronide]	23.7%	–	–

From patent US20090068719A1, “IMMUNOASSAYS, HAPTENS, IMMUNOGENS AND ANTIBODIES FOR ANTI-HIV THERAPEUTICS” (priority 2003, published 2009)
